Source: patent US20200339691A1, “PROTEINACEOUS MOLECULES AND USES THEREFOR” (priority 2018, published 2020)
Where a SMILES comes first, the peptide text is derived from it. The star is where a group is joined. Myristoyl = CCCCCCCCCCCCCC(=O)*

Tests used:
MDA-MB-231 cells = assay type: cell-based, human; details: 50 μM peptide, 48 hours, n = 1
Text: (§1) Non-adherent cells were removed during the washing steps.

[1] = test system: CD44^hiCD24^lo CSCs in MDA-MB-231 cells; assay: FACS analysis of CD44^hiCD24^lo cancer stem cells in MDA-MB-231 cells treated with P1 analogues; assay type: cell-based, human; details: 50 μM peptide, 48 hours; for CD44^hiCD24^lo CSCs (%) / COI, Live Single CD44^hiCD24^lo CSCs (Cell Count): n = 1; for Average Inhibition of CSCs (%) / CD44^hiCD24^lo CSCs (%) Repeat 1 / CD44^hiCD24^lo CSCs (%) Repeat 2 / CD44^hiCD24^lo CSCs (%) Repeat 3: n = 3
Method: Analogues of P1 (Table 6) were designed and synthesized in accordance with the procedure of Example 5. The ability of these analogues to inhibit cancer stem cells was determined using FACS analysis on MDA-MB-231 cells, which constitutively contain approximately 90% CD44^hiCD24^lo cancer stem cells, treated with the peptides.
as §1
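For COI, Live Single Cells (Cell Count) in this document: live means Hoechst-negative events among single cells.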

SMILES | COI (Cell Count) (MDA-MB-231 cells) | COI, Live Single Cells (Cell Count) (MDA-MB-231 cells) | COI, Single (Cell Count) (MDA-MB-231 cells) | Total Cell Count (MDA-MB-231 cells) | Inhibition of CSCs (%) Repeat 1 [1] [%] | Inhibition of CSCs (%) Repeat 2 [1] [%] | Inhibition of CSCs (%) Repeat 3 [1] [%] | CD44^hiCD24^lo CSCs (%) [1] [%] | COI, Live Single CD44^hiCD24^lo CSCs (Cell Count) [1] | Average Inhibition of CSCs (%) [1] [%] | CD44^hiCD24^lo CSCs (%) Repeat 1 [1] [%] | CD44^hiCD24^lo CSCs (%) Repeat 2 [1] [%] | CD44^hiCD24^lo CSCs (%) Repeat 3 [1] [%]
CCCCCCCCCCCCCC(=O)N[C@@H](CC(C)C)C(=O)N[C@H](C(=O)N[C@@H](Cc1ccccc1)C(=O)N[C@H](C(=O)N[C@@H](Cc1ccccc1)C(=O)N[C@@H](CCCNC(=N)N)C(=O)N[C@H](C(=O)N[C@@H](CCCNC(=N)N)C(=O)N[C@@H](CCCCN)C(=O)NCC(=O)N[C@@H](CCCNC(=N)N)C(=O)N[C@@H](CCSC)C(=O)N[C@@H](CCSC)C(=O)N[C@@H](CC(=O)O)C(=O)N[C@H](C(=O)N[C@@H](CCCCN)C(=O)N[C@@H](CCCCN)C(N)=O)C(C)C)C(C)C)[C@@H](C)CC)[C@@H](C)O [Peptide 2853820, Myristoyl-LTFIFRVRKGRMMDVKK-NH2] (Myristoyl-LTFIFRVRKGRMMDVKK-NH2) | 541 | 211 | 346 | 3098 | 89.75 | 90.39 | 91.76 | 6.64 | 14 | 90.63 | 9.19 | 8.62 | 7.40
CCCCCCCCCCCCCC(=O)N[C@H](C(=O)N[C@@H](Cc1ccccc1)C(=O)N[C@H](C(=O)N[C@@H](Cc1ccccc1)C(=O)N[C@@H](CCCNC(=N)N)C(=O)N[C@@H](CC(C)C)C(=O)N[C@@H](CCCNC(=N)N)C(=O)N[C@@H](CCCCN)C(=O)NCC(=O)N[C@@H](CCCNC(=N)N)C(=O)N[C@@H](CCSC)C(=O)N[C@@H](CCSC)C(=O)N[C@@H](CC(=O)O)C(=O)N[C@H](C(=O)N[C@@H](CCCCN)C(=O)N[C@@H](C)C(N)=O)C(C)C)[C@@H](C)CC)[C@@H](C)O [Peptide 2815317, Myristoyl-TFIFRLRKGRMMDVKA-NH2] (Myristoyl-TFIFRLRKGRMMDVKA-NH2) | 88 | 44 | 79 | 8821 | 47.53 | 46.46 | 63.38 | 40.91 | 18 | 52.46 | 47.02 | 48.03 | 32.86
CCCCCCCCCCCCCC(=O)N[C@H](C(=O)N[C@@H](Cc1ccccc1)C(=O)N[C@H](C(=O)N[C@@H](Cc1ccccc1)C(=O)N[C@@H](CCCNC(=N)N)C(=O)N[C@@H](CC(C)C)C(=O)N[C@@H](C)C(=O)N[C@@H](CCCCN)C(=O)NCC(=O)N[C@@H](CCCNC(=N)N)C(=O)N[C@@H](CCSC)C(=O)N[C@@H](CCSC)C(=O)N[C@@H](CC(=O)O)C(=O)N[C@H](C(=O)N[C@@H](CCCCN)C(=O)N[C@@H](CCCCN)C(N)=O)C(C)C)[C@@H](C)CC)[C@@H](C)O [Peptide 2815308, Myristoyl-TFIFRLAKGRMMDVKK-NH2] (Myristoyl-TFIFRLAKGRMMDVKK-NH2) | 340 | 163 | 301 | 9921 | 51.70 | 45.08 | 50.47 | 54.60 | 89 | 49.08 | 43.29 | 49.27 | 44.44
